The source of these data is US20260297042A1, “BIARYLAMIDE DERIVATIVES AND THEIR USE AS PKMYT1 INHIBITORS” (CANCER RESEARCH TECHNOLOGY LIMITED, priority 2023, published 2026).

Structures are written as SMILES. Structures can show the parent of a compound that is named as a salt. Bounds are passed on as bounds.

As a reminder, the IC50 is the concentration that inhibits the measured activity by half.

In one assay the target is T1, Human PKMYT1 (Homo sapiens, UniProt Q99640).
T1 construct: Human PKMYT1 75-362 was cloned as a TEV cleavable 6xHis fusion; 6xHis (TEV cleavable) (cleaved yes); made in house; host or cells: bacterial cells
T1 sequence (Q99640 75-362): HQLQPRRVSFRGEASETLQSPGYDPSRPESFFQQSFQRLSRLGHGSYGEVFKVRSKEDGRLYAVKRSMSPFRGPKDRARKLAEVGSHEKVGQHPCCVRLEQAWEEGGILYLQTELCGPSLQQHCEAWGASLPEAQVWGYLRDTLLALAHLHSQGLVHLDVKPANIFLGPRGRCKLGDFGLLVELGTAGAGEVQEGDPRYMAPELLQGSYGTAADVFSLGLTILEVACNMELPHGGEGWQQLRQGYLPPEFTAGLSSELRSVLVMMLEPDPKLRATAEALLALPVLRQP
Briefly: PKMYT1 biochemical ADP-Glo enzymatic assay. The following applies: ADP-Glo. An outline of the steps:
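Intrinsic ATPase activity of E. coli-expressed, tag-cleaved human PKMYT1 kinase domain (75-362), 15 nM, with 500 µM ATP in HEPES pH 7.5/MgCl2/EGTA/Brij-35, 1% DMSO, 60 min at 26 °C. ADP formed was read by ADP-Glo Max luminescence; IC50 from 10-point, 3-fold dilution curves.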
For orientation: In ADP-Glo the light output rises with the ADP produced.

In the next assay the target is T2, WEE1 (Homo sapiens, UniProt P30291).
T2 construct: purchased Thermo Fisher PR7373A
Briefly: Selectivity versus WEE1 assay (ADP-Glo enzymatic assay). It counts as biochemical. The following applies: for IC50: ADP-Glo; for PKMYT1 vs. WEE1 selectivity: fold difference in selectivity for PKMYT1 over WEE1. The method, then:
Selectivity versus WEE1 assay: Selectivity was established using the same format as outlined for PKMYT1. After dosing of compounds via the Echo acoustic dispenser—as described above—WEE1 (Thermo Fisher PR7373A) was added to each well at a final concentration of 15 nM in a buffer of 50 mM HEPES (pH 7.5), 10 mM MgCl2, 1 mM EGTA, 0.01% Brij-35, 1% DMSO. 30 µM ATP was added to start the reaction with the final assay volume being 4 μl. The plate was then incubated for 60 minutes at 26° C. before the addition of 4 μl of ADP-Glo Reagent. Following a further 60 minute incubation the assay signal was developed by the addition of 8 μl ADP-Glo Detection Reagent. After 60 minutes the luminescence signal was read on a PHERAStar FS microplate reader (BMG Labtech).
Data analysis: Data was captured and analysed within the Dotmatics Studies software module where dose response curves were generated and IC50 values determined. Acceptance and verification of data followed strict in-house business rules which are summarised as follows. […] Technical and biological replicates of each compound are routinely tested and replicate IC50 values must fall within 3-fold of each other with dose response curves showing ‘goodness of fit’ r2 values >0.9. Failure to meet any of these defined criteria result in rejection of data.

[1] abbreviates: 15 nM PKMYT1 kinase domain, 500 µM ATP, 60 minutes at 26° C., banded.
Setting [2] is: 15 nM WEE1, 60 minutes at 26° C., banded.
[3] abbreviates: banded, ">N" = at least in this band but could be higher.
Where [4] appears, read: PKMYT1 kinase domain 15 nM, banded values.

T2 sequence (P30291 whole entry): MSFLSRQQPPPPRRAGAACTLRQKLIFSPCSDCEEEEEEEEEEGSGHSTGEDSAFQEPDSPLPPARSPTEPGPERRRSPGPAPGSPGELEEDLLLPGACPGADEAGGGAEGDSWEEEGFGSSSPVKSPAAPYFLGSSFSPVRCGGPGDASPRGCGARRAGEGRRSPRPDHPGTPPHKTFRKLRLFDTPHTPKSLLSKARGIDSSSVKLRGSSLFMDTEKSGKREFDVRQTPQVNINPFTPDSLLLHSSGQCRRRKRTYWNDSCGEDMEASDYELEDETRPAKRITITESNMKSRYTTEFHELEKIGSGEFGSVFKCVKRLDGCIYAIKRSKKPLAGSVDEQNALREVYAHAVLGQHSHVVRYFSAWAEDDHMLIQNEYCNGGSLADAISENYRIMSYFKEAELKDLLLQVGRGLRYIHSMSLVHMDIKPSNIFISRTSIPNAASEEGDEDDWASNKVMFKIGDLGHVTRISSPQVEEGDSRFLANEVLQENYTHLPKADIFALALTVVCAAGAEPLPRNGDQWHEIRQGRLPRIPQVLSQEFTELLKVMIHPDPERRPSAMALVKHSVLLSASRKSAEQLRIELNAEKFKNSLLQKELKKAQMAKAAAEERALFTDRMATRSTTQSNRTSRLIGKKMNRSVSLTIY

Turning to `Cc1ccc(O)c(C)c1NC(=O)c1cnc(NCC2CCN(C(=O)CC(C)(C)C)CC2)s1` [BAA-212, 2-[[1-(3,3-Dimethylbutanoyl)-4-piperidyl]methylamino]-N-(3-hydroxy-2,6-dimethyl-phenyl)thiazole-5-carboxamide], the IC50 is 50 to 1000 nM on Human PKMYT1 (setting [1]) and above 11000 nM at WEE1 (setting [2]). For the same compound, the “PKMYT1 vs. WEE1 selectivity” value at WEE1 (setting [3]) is recorded as “>X (100-<1000 fold)”.

Regarding `Cc1ccc(O)c(C)c1NC(=O)c1cnc(Nc2cc(C)n(C(C)C(=O)N3CCCC3)n2)s1` (stereo not drawn) [BAA-508, N-(3-hydroxy-2,6-dimethylphenyl)-2-((5-methyl-1-(1-oxo-1-(pyrrolidin-1-yl)propan-2-yl)-1H-pyrazol-3-yl)amino)thiazole-5-carboxamide], the IC50 on Human PKMYT1 (setting [4]) was 50 to 1000 nM; against WEE1 (WEE1 15 nM, banded values), above 11000 nM. Also, at WEE1 (banded), the “PKMYT1 vs. WEE1 selectivity” value was “W (10-<100 fold)”.

Take `Cc1ccc(O)c(C)c1NC(=O)c1cnc(Nc2cc[nH]n2)s1` [BAA-003, N-(3-hydroxy-2,6-dimethyl-phenyl)-2-(1H-pyrazol-3-ylamino)thiazole-5-carboxamide]: the results for the half-maximal inhibitory concentration (IC50) at Human PKMYT1 (setting [1]) and against WEE1 (setting [2]) were 1000 to 11000 nM and above 11000 nM, respectively. Also, on WEE1 (setting [3]), the “PKMYT1 vs. WEE1 selectivity” value is “W (10-<100 fold)”.

`Cc1ccc(O)c(C)c1NC(=O)c1cnc(Nc2cc(C(=O)O)nn2C)s1` [BAA-121, 5-[[5-[(3-hydroxy-2,6-dimethyl-phenyl)carbamoyl]thiazol-2-yl]amino]-1-methyl-pyrazole-3-carboxylic acid]: the IC50 on Human PKMYT1 (setting [1]) was 50 to 1000 nM; on WEE1 (setting [2]) it was above 11000 nM. In addition, on WEE1 (setting [3]), the “PKMYT1 vs. WEE1 selectivity” value is given as “X (100-<1000 fold)”.

Take `Cc1ccc(O)c(C)c1NC(=O)c1cnc(Nc2ccn([C@@H]3CCN(C(=O)Cc4ccccc4)C3)n2)s1` [BAA-083]: the results for the IC50 at Human PKMYT1 (setting [1]) and against WEE1 (setting [2]) were 50 to 1000 nM and above 11000 nM, respectively. In addition, the “PKMYT1 vs. WEE1 selectivity” value at WEE1 (setting [3]) is “>Y (1000-5000 fold)”.

As for `CCC(=O)N1CC[C@@H](n2ccc(Nc3ncc(C(=O)Nc4c(C)ccc(O)c4C)s3)n2)C1` [BAA-085], the results for the IC50 at Human PKMYT1 (setting [1]) and on WEE1 (setting [2]) were below 50 nM and above 11000 nM, respectively. For the same compound, the “PKMYT1 vs. WEE1 selectivity” value at WEE1 (setting [3]) is “>Y (1000-5000 fold)”.

In the case of `CCN(C(=O)C(C)(C)C)c1ccc(C)c(Nc2ncc(C(=O)Nc3c(C)ccc(O)c3C)s2)n1` [BAA-234, 2-((6-(N-ethylpivalamido)-3-methylpyridin-2-yl)amino)-N-(3-hydroxy-2,6-dimethylphenyl) thiazole-5-carboxamide], the IC50 against Human PKMYT1 (setting [1]) is below 50 nM; against WEE1 (setting [2]), 1000 to 11000 nM. For the same compound, the “PKMYT1 vs. WEE1 selectivity” value at WEE1 (setting [3]) is “X (100-<1000 fold)”.

For the compound `Cc1ccc(O)c(C)c1NC(=O)c1cnc(Nc2nc(C)c(-c3cc(F)cc(F)c3)c(C)n2)s1` [BAA-301, 2-((5-(3,5-difluorophenyl)-4,6-dimethylpyrimidin-2-yl)amino)-N-(3-hydroxy-2,6-dimethylphenyl)thiazole-5-carboxamide], the results for the IC50 on Human PKMYT1 (setting [1]) and at WEE1 (setting [2]) were 50 to 1000 nM and above 11000 nM, respectively. Further, the “PKMYT1 vs. WEE1 selectivity” value at WEE1 (setting [3]) is “X (100-<1000 fold)”.

Regarding `Cc1ccc(O)c(C)c1NC(=O)c1cnc(Nc2nn(C)cc2C#N)s1` [BAA-496, 2-((4-cyano-1-methyl-1H-pyrazol-3-yl)amino)-N-(3-hydroxy-2,6-dimethylphenyl)thiazole-5-carboxamide], the IC50 against Human PKMYT1 (setting [4]) was below 50 nM; against WEE1 (WEE1 15 nM, banded values), above 11000 nM. For the same compound, at WEE1 (banded), the “PKMYT1 vs. WEE1 selectivity” value is recorded as “Y (1000-5000 fold)”.

Consider `Cc1ccc(O)c(C)c1NC(=O)c1cnc(Nc2cc(CO)n(C)n2)s1` [BAA-251, N-(3-hydroxy-2,6-dimethylphenyl)-2-((5-(hydroxymethyl)-1-methyl-1H-pyrazol-3-yl)amino)thiazole-5-carboxamide], for which the IC50 against Human PKMYT1 (setting [1]) was below 50 nM; at WEE1 (setting [2]), 1000 to 11000 nM. Moreover, the “PKMYT1 vs. WEE1 selectivity” value on WEE1 (setting [3]) is listed as “X (100-<1000 fold)”.

`Cc1ccc(O)c(C)c1NC(=O)c1cnc(Nc2cc3ccccn3n2)s1` [BAA-048, N-(3-hydroxy-2,6-dimethyl-phenyl)-2-(pyrazolo[1,5-a]pyridin-2-ylamino)thiazole-5-carboxamide]: the IC50 against Human PKMYT1 (setting [1]) was 50 to 1000 nM; at WEE1 (setting [2]), above 11000 nM. In addition, the “PKMYT1 vs. WEE1 selectivity” value on WEE1 (setting [3]) was “Y (1000-5000 fold)”.

Consider `Cc1ccc(O)c(C)c1NC(=O)c1cnc(Nc2ccn(CC(=O)N3C[C@@H]4C[C@H]3CN4C(=O)OC(C)(C)C)n2)s1` [BAA-143], for which the IC50 against Human PKMYT1 (setting [1]) was below 50 nM; against WEE1 (setting [2]) it was above 11000 nM. For the same compound, the “PKMYT1 vs. WEE1 selectivity” value at WEE1 (setting [3]) is recorded as “Y (1000-5000 fold)”.

For the compound `Cc1ccc(O)c(C)c1NC(=O)c1cnc(Nc2nn(C)cc2-c2ccccc2)s1` [BAA-373, N-(3-hydroxy-2,6-dimethylphenyl)-2-((1-methyl-4-phenyl-1H-pyrazol-3-yl)amino)thiazole-5-carboxamide], the figures for the IC50 against Human PKMYT1 (setting [1]) and against WEE1 (setting [2]) were 50 to 1000 nM and above 11000 nM, respectively. The “PKMYT1 vs. WEE1 selectivity” value at WEE1 (setting [3]) is recorded as “X (100-<1000 fold)”.

For the compound `COc1ccccc1Nc1ncc(C(=O)Nc2c(C)ccc(O)c2C)s1` [BAA-528, N-(3-hydroxy-2,6-dimethylphenyl)-2-((2-methoxyphenyl)amino)thiazole-5-carboxamide. TFA salt], the IC50 at Human PKMYT1 (setting [4]) is 50 to 1000 nM; against WEE1 (WEE1 15 nM, banded values), above 11000 nM. The “PKMYT1 vs. WEE1 selectivity” value on WEE1 (banded) is “X (100-<1000 fold)”.

`Cc1c[nH]nc1Nc1ncc(C(=O)Nc2c(C)ccc(O)c2C)s1` [BAA-388, N-(3-hydroxy-2,6-dimethylphenyl)-2-((4-methyl-1H-pyrazol-3-yl)amino)thiazole-5-carboxamide]: the IC50 against Human PKMYT1 (setting [1]) is below 50 nM; on WEE1 (setting [2]), 1000 to 11000 nM. Further, the “PKMYT1 vs. WEE1 selectivity” value at WEE1 (setting [3]) was “X (100-<1000 fold)”.

In the case of `COc1ccc(CC(=O)N2CCC(CNc3ncc(C(=O)Nc4c(C)ccc(O)c4C)s3)CC2)cc1` [BAA-213, N-(3-Hydroxy-2.6-dimethyl-phenyl)-2-[[1-[2-(4-methoxyphenyl)acetyl]-4-piperidyl]methylamino]thiazole-5-carboxamide], the IC50 at Human PKMYT1 (setting [1]) was 50 to 1000 nM; against WEE1 (setting [2]) it was above 11000 nM. Further, the “PKMYT1 vs. WEE1 selectivity” value on WEE1 (setting [3]) is recorded as “>X (100-<1000 fold)”.

Take `Cc1ccc(O)c(C)c1NC(=O)c1cnc(NCC2CC2)s1` [BAA-347]: the IC50 is 50 to 1000 nM on Human PKMYT1 (setting [1]) and above 11000 nM against WEE1 (setting [2]). The “PKMYT1 vs. WEE1 selectivity” value at WEE1 (setting [3]) is “X (100-<1000 fold)”.

Turning to `Cc1ccc(O)c(C)c1NC(=O)c1cnc(NCCCN2CCN(C(=O)OC(C)(C)C)CC2)s1` [BAA-073, tert-butyl 4-[3-[[5-[(3-hydroxy-2,6-dimethyl-phenyl)carbamoyl]thiazol-2-yl]amino]propyl]piperazine-1-carboxylate], the half-maximal inhibitory concentration (IC50) was 50 to 1000 nM on Human PKMYT1 (setting [1]) and above 11000 nM on WEE1 (setting [2]). In addition, the “PKMYT1 vs. WEE1 selectivity” value at WEE1 (setting [3]) is “>X (100-<1000 fold)”.

In the case of `Cc1ccc(O)c(C)c1NC(=O)c1cnc(Nc2ccn(CC(=O)N3CCN(C)CC3)n2)s1` [BAA-034], the IC50 on Human PKMYT1 (setting [1]) was below 50 nM; against WEE1 (setting [2]) it was 1000 to 11000 nM. In addition, the “PKMYT1 vs. WEE1 selectivity” value on WEE1 (setting [3]) is recorded as “X (100-<1000 fold)”.

For `CCN(CCS(C)(=O)=O)C(=O)Cn1cc(C)c(Nc2ncc(C(=O)Nc3c(C)ccc(O)c3C)s2)n1` [BAA-555, 2-((1-(2-(ethyl(2-(methylsulfonyl)ethyl)amino)-2-oxoethyl)-4-methyl-1H-pyrazol-3-yl)amino)-N-(3-hydroxy-2,6-dimethylphenyl)thiazole-5-carboxamide], the IC50 against Human PKMYT1 (setting [4]) was below 50 nM; on WEE1 (WEE1 15 nM, banded values) it was 1000 to 11000 nM. Besides, on WEE1 (banded), the “PKMYT1 vs. WEE1 selectivity” value is recorded as “Y (1000-5000 fold)”.

On to `Cc1ccc(O)c(C)c1NC(=O)c1cnc(Nc2nc(C(F)(F)F)co2)s1` [BAA-438, N-(3-hydroxy-2,6-dimethylphenyl)-2-((4-(trifluoromethyl)oxazol-2-yl)amino) thiazole-5-carboxamide], for which the half-maximal inhibitory concentration (IC50) on Human PKMYT1 (setting [4]) was 1000 to 11000 nM; against WEE1 (WEE1 15 nM, banded values) it was above 11000 nM. At WEE1 (banded), the “PKMYT1 vs. WEE1 selectivity” value was “W (10-<100 fold)”.

In the case of `Cc1ccc(O)c(C)c1NC(=O)c1cnc(Nc2ncccc2C#N)s1` [BAA-408, 2-((3-cyanopyridin-2-yl)amino)-N-(3-hydroxy-2,6-dimethylphenyl)thiazole-5-carboxamide], the IC50 against Human PKMYT1 (setting [4]) is 50 to 1000 nM; at WEE1 (WEE1 15 nM, banded values) it was above 11000 nM. In addition, the “PKMYT1 vs. WEE1 selectivity” value at WEE1 (banded) was “X (100-<1000 fold)”.
